{"source": "the RepoRT retention time repository", "note": "Counter-ions that a name gives are not always drawn."}
{"experiment": "HILIC, Merck SeQuant ZIC-HILIC, 25 °C, 0.25 mL/min; A: water + 16 mM ammonium formate; B: acetonitrile + 0.1% formic acid, pH 3; gradient (min/%B) 0/97 2/97 10/70 15/10 17/10 18/97 25/97", "conditions": "stereoisomer not certain", "units": {"LC retention time": "min"}}
{"smiles": "CSCCC(O)C(=O)O", "note": "(stereo unspecified) [2-HYDROXY-4-(METHYLTHIO)BUTANOATE]", "LC retention time": 1.99}
{"smiles": "CCCCCCCCCCCCCCCCCC(=O)OCC(O)COP(=O)([O-])OCC[N+](C)(C)C", "note": "(stereo unspecified) [18-0_LysoPC]", "LC retention time": 11.2}
{"smiles": "N[C@@H](Cc1ccc(O)c([N+](=O)[O-])c1)C(=O)O", "note": "[3-NITRO-L-TYROSINE]", "LC retention time": 11.1}
{"smiles": "N[C@@H](CO)C(=O)O", "note": "[L-Serine]", "LC retention time": 14.2}
{"smiles": "Cn1cnc2[nH]c(=O)[nH]c(=O)c21", "note": "[7-Methylxanthine]", "LC retention time": 2.21}
{"smiles": "O=C(O)CCCCC1CCSS1", "note": "(racemic)", "LC retention time": 1.66}
{"smiles": "COc1cc(CC(=O)O)ccc1O", "note": "[HOMOVANILLATE]", "LC retention time": 2.04}
{"smiles": "Nc1c(O)cccc1C(=O)O", "note": "[3-HYDROXYANTHRANILATE]", "LC retention time": 2.15}
{"smiles": "O=C(O)C(=O)CCc1ccccc1", "note": "[2-oxo-4-phenyl-butyric acid]", "LC retention time": 2.06}
{"smiles": "NC(=O)c1ccccc1O", "note": "[SALICYLAMIDE]", "LC retention time": 1.74}
{"smiles": "O=C(O)c1cccc(O)c1O", "note": "[2-3-DIHYDROXYBENZOATE]", "LC retention time": 2.14}
{"smiles": "CCCCCCCCCCCCCCCC(=O)OCC(O)COP(=O)(O)OCCN", "note": "(stereo unspecified) [16-0_LysoPE]", "LC retention time": 10.2}
{"smiles": "CC(C)(CC(=O)O)CC(=O)O", "note": "[3-3-Dimethylglutaric acid]", "LC retention time": 2.11}
{"smiles": "CCCCC(O)C(=O)O", "note": "(stereo unspecified) [2-hydroxycaproic acid]", "LC retention time": 1.87}
{"smiles": "CC(=O)C1(O)CCC2C3CCC4=CC(=O)CCC4(C)C3CCC21C", "note": "(stereo unspecified) [17a-Hydroxyprogesterone]", "LC retention time": 1.61}
{"smiles": "Nc1ccccc1O", "note": "[2-AMINOPHENOL]", "LC retention time": 2.11}
{"smiles": "CCCCCCCCCCCCCC(=O)OCC(O)COP(=O)([O-])OCC[N+](C)(C)C", "note": "(stereo unspecified) [14-0_LysoPC]", "LC retention time": 11.3}
{"smiles": "O=c1ccn(C2OC(COP(=O)(O)OP(=O)(O)O)C(O)C2O)c(=O)[nH]1", "note": "(stereo unspecified) [URIDINE 5'-DIPHOSPHATE]", "LC retention time": 15}
{"smiles": "NCCCNCCCN", "note": "[NORSPERMIDINE]", "LC retention time": 19.4}
{"smiles": "CC(CCC(=O)O)C1CCC2C3C(=O)CC4CC(O)CCC4(C)C3CC(O)C12C", "note": "(stereo unspecified) [5b-cholanic acid-3a-12a-DIOL-7-ONE]", "LC retention time": 2.17}
{"smiles": "NC(N)=S", "note": "[THIOUREA]", "LC retention time": 5.07}
{"smiles": "Cc1cc2nc3c(=O)[nH]c(=O)nc-3n(CC(O)C(O)C(O)COP(=O)(O)OP(=O)(O)OCC3OC(n4cnc5c(N)ncnc54)C(O)C3O)c2cc1C", "note": "(stereo unspecified) [FAD]", "LC retention time": 13.8}
{"smiles": "O=C(O)CCCCCCCC(=O)O", "note": "[AZELATE]", "LC retention time": 1.84}
{"smiles": "O=C[C@H](O)[C@H](O)CO", "note": "[D-(-)-Erythrose]", "LC retention time": 8.22}
{"smiles": "NCCP(=O)(O)O", "note": "[(2-AMINOETHYL)PHOSPHONATE]", "LC retention time": 15}
{"smiles": "CC(=O)Oc1cccc(O)c1", "note": "[RESORCINOL MONOACETATE]", "LC retention time": 1.71}
{"smiles": "NCCS", "note": "[CYSTEAMINE]", "LC retention time": 16.9}
{"smiles": "O=C(O)c1cc(O)cc(O)c1", "note": "[3-5-Dihydroxybenzoic acid]", "LC retention time": 8.46}
{"smiles": "CC(=O)NCCCC(=O)O", "note": "[4-ACETAMIDOBUTANOATE]", "LC retention time": 2.87}
{"smiles": "CC(=O)N[C@@H]1[C@@H](O)[C@H](O)[C@@H](CO)O[C@H]1N", "note": "[2-ACETAMIDO-2-DEOXY-BETA-D-GLUCOSYLAMINE]", "LC retention time": 14.5}
{"smiles": "CC(=O)NCCCCN", "note": "[N-ACETYLPUTRESCINE]", "LC retention time": 12.9}
{"smiles": "NC(C(=O)O)C(O)C(O)C(O)CO", "note": "(stereo unspecified) [GLUCOSAMINATE]", "LC retention time": 14.7}
{"smiles": "CC(C)=CCNc1ncnc2nc[nH]c12", "note": "[N6-(DELTA2-ISOPENTENYL)-ADENINE]", "LC retention time": 2.13}
{"smiles": "CC(=O)N[C@@H](Cc1ccc(O)cc1)C(=O)O", "note": "[N-Acetyl-L-tyrosine]", "LC retention time": 2.16}
{"smiles": "Cc1ccccc1C(=O)NCC(=O)O", "note": "[2-Methylhippuric acid (ortho-Methylhippuric acid)]", "LC retention time": 1.97}
{"smiles": "CCCCC(CC)COC(=O)c1ccccc1C(=O)OCC(CC)CCCC", "note": "(stereo unspecified) [BIS(2-ETHYLHEXYL)PHTHALATE]", "LC retention time": 1.48}
{"smiles": "Nc1ncnc2c1ncn2C1OC(CO)C2OP(=O)(O)OC21", "note": "(stereo unspecified) [ADENOSINE 2'-3'-CYCLIC PHOSPHATE]", "LC retention time": 11.4}
{"smiles": "O=C(O)C(O)Cc1ccc(O)cc1", "note": "(stereo unspecified) [HYDROXYPHENYLLACTATE]", "LC retention time": 5.36}
{"smiles": "O=c1ccn(C2OC(COP(=O)(O)O)C(O)C2O)c(=O)[nH]1", "note": "(stereo unspecified) [URIDINE MONOPHOSPHATE]", "LC retention time": 13.9}
{"smiles": "NC(=O)c1ccc[n+](C2OC(COP(=O)(O)OP(=O)(O)OCC3OC(n4cnc5c(=O)[nH]cnc54)C(O)C3O)C(O)C2O)c1", "note": "(stereo unspecified) [NICOTINAMIDE HYPOXANTHINE DINUCLEOTIDE]", "LC retention time": 14.8}
{"smiles": "O=CNCC(=O)O", "note": "[N-FORMYLGLYCINE]", "LC retention time": 5.34}
{"smiles": "O=c1c(OC2OC(CO)C(O)C(O)C2O)c(-c2ccc(O)c(O)c2)oc2cc(O)cc(O)c12", "note": "[Quercetin-3-beta-D-glucoside]", "LC retention time": 9.37}
{"smiles": "O=C(O)C=CC(=O)O", "note": "[fumaric acid]", "LC retention time": 7.45}
{"smiles": "c1ccc(CNc2ccccc2)cc1", "note": "[N-benzylaniline]", "LC retention time": 1.54}
{"smiles": "NC(CCSCC(N)C(=O)O)C(=O)O", "note": "(stereo unspecified) [CYSTATHIONINE]", "LC retention time": 15.4}
{"smiles": "Cc1cnc(C)cn1", "note": "[2-5-DIMETHYLPYRAZINE]", "LC retention time": 2.19}
{"smiles": "O=C(O)Cc1ccc(O)c(O)c1", "note": "[3-4-DIHYDROXYPHENYLACETATE]", "LC retention time": 5.6}
{"smiles": "CCCCCCCCCCCCCCCCCC(=O)O", "note": "[STEARATE]", "LC retention time": 1.56}
{"smiles": "CC(=O)NCCc1c[nH]c2ccc(O)cc12", "note": "[N-ACETYLSEROTONIN]", "LC retention time": 2.15}
{"smiles": "O=C[O-]", "note": "[FORMATE]", "LC retention time": 2.79}
{"smiles": "CC(=O)OCC(=O)O", "note": "[Acetoxyacetic acid]", "LC retention time": 2.23}
{"smiles": "O=C(O)C(=O)O", "note": "[OXALATE]", "LC retention time": 17.5}
{"smiles": "CC(=O)NC(Cc1ccccc1)C(=O)O", "note": "(stereo unspecified) [N-ACETYLPHENYLALANINE]", "LC retention time": 1.95}
{"smiles": "O=C(O)c1ccc(=O)[nH]c1", "note": "[6-HYDROXYNICOTINATE]", "LC retention time": 6.01}
{"smiles": "O=C1CC(C(=O)O)NC(=O)N1", "note": "(stereo unspecified) [DIHYDROOROTATE]", "LC retention time": 10.6}
{"smiles": "CC1OC(n2cnc3c(N)ncnc32)C(O)C1O", "note": "(stereo unspecified) [5'-DEOXYADENOSINE]", "LC retention time": 2.24}
{"smiles": "NCCc1cc(O)c(O)cc1O", "note": "[6-HYDROXYDOPAMINE]", "LC retention time": 12.6}
{"smiles": "C[N+](C)(C)[O-]", "note": "[trimethylamine N-oxide]", "LC retention time": 11.9}
{"smiles": "NCCCCN=C(N)N", "note": "[AGMATINE SULFATE]", "LC retention time": 17.2}
{"smiles": "CC1NC(=O)NC1CCCCCC(=O)O", "note": "(stereo unspecified) [DETHIOBIOTIN]", "LC retention time": 2.13}
{"smiles": "NC1(C(=O)O)CC1", "note": "[1-AMINOCYCLOPROPANECARBOXYLATE]", "LC retention time": 13.5}
{"smiles": "O=C(O)CC(CC(=O)O)C(=O)O", "note": "[Tricarballylic acid]", "LC retention time": 9.58}
{"smiles": "CC(N)(Cc1cnc[nH]1)C(=O)O", "note": "(racemic) [Alpha-methyl-DL-histidine dihydrochloride]", "LC retention time": 15.5}
{"smiles": "O=C(O)c1cc[n+]([O-])cc1", "note": "[Isonicotinic acid N-oxide]", "LC retention time": 9.7}
{"smiles": "O=CCc1c[nH]c2ccccc12", "note": "[INDOLEACETALDEHYDE]", "LC retention time": 10}
{"smiles": "Cc1cn(C2CC(O)C(CO)O2)c(=O)[nH]c1=O", "note": "(stereo unspecified) [THYMIDINE]", "LC retention time": 2.17}
{"smiles": "CC1NCCc2cc(O)c(O)cc21", "note": "(stereo unspecified) [SALSOLINOL]", "LC retention time": 11.1}
{"smiles": "O=C(O)CCCCCC(=O)O", "note": "[pimelic acid]", "LC retention time": 2.14}
{"smiles": "O=c1[nH]c(=O)c2[nH]cnc2[nH]1", "note": "[XANTHINE]", "LC retention time": 8.96}
{"smiles": "CC(C)C(=O)O", "note": "[ISOBUTYRATE]", "LC retention time": 2.11}
{"smiles": "Cc1cc2nc3[nH]c(=O)[nH]c(=O)c3nc2cc1C", "note": "[LUMICHROME]", "LC retention time": 1.94}
